Test results published in US20040023884A1, “Biologically active peptides from functional domains of bactericidal/permeability-increasing protein and uses thereof” (priority 1993, published 2004).
Ends that are not written are not given here.

Assays:
[1] = test system: Candida albicans; assay type: cell-based
[2] = Heparin binding by tryptophan fluorescence quenching
Source text: (§1) The naturally-occurring amino acid tryptophan can emit light (i.e., it fluoresces) having a wavelength between 300 and 400 nm after excitation with light having a wavelength of between about 280 nm and 290 nm, preferably 285 nm. The amount of emitted light produced by such fluorescence is known to be affected by the local environment, including pH and buffer conditions, as well as binding interactions between proteins and other molecules. Some BPI functional domain peptides derived from domains II and III contain tryptophan residues, and tryptophan fluorescence was used to assay binding interactions between the BPI functional domain peptides of the invention and LPS or heparin.
(§2) Tryptophan fluorescence of the BPI functional domain peptides of the invention was determined in the presence or absence of LPS or heparin using a SPEX Fluorolog fluorimeter. Samples were excited with 285 nm light using a 0.25 nm slitwidth. Emission wavelengths were scanned between 300-400 nm using a 1.25 nm slitwidth. Data were accumulated as the average of three determinations performed over an approximately 5 min time span. Samples were maintained at 25° C. or 37° C. during the course of the experiments using a circulating water bath. Crab endotoxin binding protein (CEBP), a protein wherein the intrinsic fluorescence of tryptophan residues is affected by binding to LPS, was used as a positive control. (See Wainwright et al., 1990, Cellular and Molecular Aspects of Endotoxin Reactions, Nowotny et al., eds., Elsevier Science Publishing B.V., The Netherlands, pp. 315-325).
(§3) Kd values were determined by Scatchard-type Stern-Volmer plots of the quenching data as the negative inverse of the slope of such plots. Comparing the data for BPI.10, BPI.46 and BPI.47, it is seen that as the Kd decreased (indicating an increase in avidity for LPS), the percent fluorescence quenching increased. The differences between these peptides include replacement of basic and polar amino acid residues with non-polar residues in […] as compared with BPI.10. In contrast, as the Kd of heparin binding decreased, a corresponding increase in the percentage of fluorescence quenching was not detected.

[3] = LPS binding by tryptophan fluorescence quenching
Source text: as §1, §2, §3

[4] = test system: E. coli 86a:K61; test: Bactericidal assay performed in human serum, E. coli O86a:K61; assay type: cell-based; details: FIG. 11l
Source text: FIG. 11l is a graph showing the results of BPI functional domain peptide BPI.30 in bactericidal assays performed in human serum;

[5] = test system: Salmonella typhurium; test: Radial diffusion bactericidal assay, Salmonella typhurium; assay type: cell-based; details: FIG. 11h
[6] = test system: E. coli O4:K12; test: Broth bactericidal assay, E. coli O4:K12; assay type: cell-based; details: FIG. 11k

**Q.** For “KSKVGWLIQLFHKK-NH2 (C-terminus assumed) [BPI.13]”, which “MIC C. alb” value [1] is on record?
**A.** 6.25 mg/L

**Q.** What does the source list for KWKAAARFLKKWKAAARFLK [BPI.48]?
**A.** Quenching Heparin [2]: 41%; Kd ([2]; Stern-Volmer plots): 0.8 µM; Quenching LPS [3]: 62%; Kd ([3]; Stern-Volmer plots): 0.083 µM

**Q.** With “KWKAQKRFLKKSKVGWLIQLFHKK-NH2 (C-terminus assumed) [BPI.30]” as the substance, how does the “bactericidal activity (in words)” value [4] read?
**A.** showed bactericidal activity

**Q.** What about the “bactericidal activity (in words)” value [5] of the same substance?
**A.** showed bactericidal activity

**Q.** What about the “bactericidal activity (in words)” value [6] of the same substance?
**A.** showed bactericidal activity
